{"source": "patent US12350260B2", "about": "(priority 2019, dated 2025)", "key": {"[1]": {"test_system": "co-cultured sensory neurons and keratinocytes", "type": "cell-based, rat DRG neurons, human keratinocytes"}, "PAR-2 [2]": {"molecular_target": "T1, PAR-2 (Homo sapiens, UniProt P55085)", "T1 sequence (P55085 26-397)": "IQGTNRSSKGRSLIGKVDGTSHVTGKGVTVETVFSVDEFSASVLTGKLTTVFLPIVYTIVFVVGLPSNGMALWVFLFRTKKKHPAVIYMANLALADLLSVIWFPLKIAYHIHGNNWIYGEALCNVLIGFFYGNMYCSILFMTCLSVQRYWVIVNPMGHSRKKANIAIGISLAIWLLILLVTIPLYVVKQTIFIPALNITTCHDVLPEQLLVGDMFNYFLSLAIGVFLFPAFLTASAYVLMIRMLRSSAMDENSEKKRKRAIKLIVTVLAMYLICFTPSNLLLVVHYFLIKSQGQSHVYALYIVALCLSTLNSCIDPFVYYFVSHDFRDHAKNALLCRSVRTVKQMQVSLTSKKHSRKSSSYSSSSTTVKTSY", "settings": "cited from earlier work"}, "DRG neurons": {"test_system": "DRG neurons", "type": "cell-based, rat"}, "sensory neurons": {"test_system": "sensory neurons", "type": "cell-based, rat"}, "[3]": {"test_system": "co-cultured DRG neurons and keratinocytes", "type": "cell-based, rat DRG neurons, human keratinocytes"}, "PAR-2 [4]": {"test_system": "PAR-2", "type": "cell-based, rat"}, "[5]": {"test_system": "primary human epidermal keratinocytes", "type": "cell-based"}, "PAR-2 [6]": {"molecular_target": "T1, PAR-2", "settings": "cited from earlier work", "remark": "listed apart in the source"}, "[7]": {"settings": "not told; cited from earlier work"}, "[8]": {"settings": "in vivo, cited from earlier work"}}, "note": "“And” between values parts separate entries of the source, which are not always exact repeats. Equal entries are not always repeated.", "data": [{"molecule": "CCC(C)[C@H](NC(=O)[C@H](CC1CCCCC1)NC(=O)c1ccno1)C(=O)N1CCC2(CCc3ccccc32)CC1", "note": "(some centres unmarked) [GB83]", "values": [{"measurement": "PbTx-1-induced SP release with pre-treatment (normalized levels)", "setting": "[1]", "value": "47±8.2", "unit": "%"}, {"measurement": "PbTx-1-induced SP release, decreased to (% of PbTx-1 alone)", "setting": "[1]", "value": "40.9±7.4", "unit": "%"}, {"measurement": "inhibitory effect on PbTx-1-induced SP release", "setting": "[1]", "value": "45.3±6.9", "unit": "%"}, {"measurement": "PAR-2 calcium signaling / calcium mobilization", "setting": "PAR-2 [2]", "value": "inhibit"}, {"measurement": "normalized amplitude of the first peak in responding cells (% of P-CTX-2 alone)", "setting": "DRG neurons", "value": "31.2±4.2", "unit": "%"}, {"measurement": "normalized amplitude values of the plateau in responding cells (% of P-CTX-2 alone)", "setting": "DRG neurons", "value": "50.1±8.7", "unit": "%"}, {"measurement": "normalized percentage of cells responding with a second peak (% of P-CTX-2 alone)", "setting": "DRG neurons", "value": "16.7±4.1", "unit": "%"}, {"measurement": "normalized percentage of cells responding with the first peak (% of P-CTX-2 alone)", "setting": "DRG neurons", "value": "34.5±10.5", "unit": "%"}, {"measurement": "normalized percentage of neurons responding with a plateau (compared to P-CTX-2 alone)", "setting": "DRG neurons", "value": "7.9±3.3", "unit": "%"}, {"measurement": "normalized second peak amplitude in responding cells (% of P-CTX-2 alone)", "setting": "DRG neurons", "value": "27.2±5.0", "unit": "%"}, {"measurement": "normalized percentage of cells responding to PbTx-1 with the first peak", "setting": "sensory neurons", "value": "75.7±7.28", "unit": "%"}, {"measurement": "normalized percentage of cells responding to PbTx-1 with the plateau", "setting": "sensory neurons", "value": "37.7±7.7", "unit": "%"}, {"measurement": "normalized percentage of cells responding to PbTx-1 with the second peak", "setting": "sensory neurons", "value": "48.9±7.38", "unit": "%"}, {"measurement": "P-CTX-2-induced SP release, reduced to (% of P-CTX-2 alone)", "setting": "[3]", "value": "15.0±7.9", "unit": "%"}]}, {"molecule": "NC1=N[C@H](O)[C@H]2[C@H]3O[C@]4(O)O[C@@H]([C@@H](O)[C@@]2(N1)[C@@H]4O)[C@]3(O)CO", "note": "[TTX, Tetrodotoxin]", "values": [{"measurement": "normalized amplitude of the first peak in responding cells (% of P-CTX-2 alone)", "setting": "DRG neurons", "value": "53.6±8.0% and 47.8±7.2%"}, {"measurement": "normalized amplitude values of the plateau in responding cells (% of P-CTX-2 alone)", "setting": "DRG neurons", "value": "53.2±1.3% and 84.8±6.6%"}, {"measurement": "normalized percentage of cells responding with the first peak (% of P-CTX-2 alone)", "setting": "DRG neurons", "value": "34.9±13.4% and 41.6±12.5%"}, {"measurement": "normalized second peak amplitude in responding cells (% of P-CTX-2 alone)", "setting": "DRG neurons", "value": "33.7±3.5% and 61.9±16.1%"}, {"measurement": "normalized amplitude of the second peak", "setting": "sensory neurons", "value": "3.4±3.4", "unit": "%"}, {"measurement": "normalized percentage of cells responding to PbTx-1 with the first peak", "setting": "sensory neurons", "value": "65.20±14.50% and 34.40±21.24%"}, {"measurement": "P-CTX-2-induced SP release, reduced to (% of P-CTX-2 alone)", "setting": "[3]", "value": "29.3±7.3% and 53.1±11.3%"}, {"measurement": "membrane expression of PAR-2", "setting": "PAR-2 [4]", "value": "95.3±4.9% and 92.7±1.3%"}, {"measurement": "average ratio of the P-CTX-2-mediated calcium signal (ΔF/F0)", "setting": "[5]", "value": "0.34±0.11"}, {"measurement": "decrease of the average ratio of the P-CTX-2-mediated calcium signal", "setting": "[5]", "value": "approximately 70%"}]}, {"molecule": "CC[C@H](C)[C@H](NC(=O)[C@H](CC1CCCCC1)NC(=O)c1ccno1)C(=O)N1CCC2(CCc3ccccc32)CC1", "note": "[GB88]", "values": [{"measurement": "PAR-2 calcium signaling / calcium mobilization", "setting": "PAR-2 [2]", "value": "inhibit"}]}, {"molecule": "CCc1nn(CCCN2CCN(c3cccc(Cl)c3)CC2)c(=O)n1CCOc1ccccc1", "note": "[Nefazodone]", "values": [{"measurement": "PAR-2 calcium signaling / calcium mobilization", "setting": "PAR-2 [2]", "value": "inhibit"}, {"measurement": "ERK1/2 phosphorylation", "setting": "PAR-2 [6]", "value": "inhibit"}]}, {"molecule": "Cl.Cn1cc(C2=C(c3c4n(c5ccccc35)CCC(CN)C4)C(=O)NC2=O)c2ccccc21", "note": "(centres unmarked) [BimX, Bisindolylmaleimide X hydrochloride]", "values": [{"measurement": "PbTx-1-induced SP release with pre-treatment (normalized levels)", "setting": "[1]", "value": "37.4±5.9", "unit": "%"}, {"measurement": "normalized amplitude values in each phase (FIGS. 9B, 9D, 9F)", "setting": "sensory neurons", "value": "No significant modification"}, {"measurement": "normalized percentage of cells responding to PbTx-1 with the first peak", "setting": "sensory neurons", "value": "did not decrease"}, {"measurement": "normalized percentage of cells responding to PbTx-1 with the second peak", "setting": "sensory neurons", "value": "67.7±7.5", "unit": "%"}]}, {"molecule": "2-aminothiazol-4-yl-LIGRL-NH2 ({2‑aminothiazol‑4‑yl}-LIGRL-NH2)", "values": [{"measurement": "PAR-2 calcium signaling / calcium mobilization", "setting": "PAR-2 [2]", "value": "inhibit"}, {"measurement": "ERK1/2 phosphorylation", "setting": "PAR-2 [6]", "value": "inhibit"}]}, {"molecule": "CC(C)C[C@H](NC(=O)[C@H](Cc1ccccc1)NC(=O)OCc1ccccc1)C(=O)C=O", "note": "[Z-FL-COCHO, Cbz-Phe-Leu-COCHO]", "values": [{"measurement": "PbTx-1-induced SP release, decreased to (% of PbTx-1 alone)", "setting": "[1]", "value": "80.4±4.1", "unit": "%"}, {"measurement": "cell permeability", "setting": "[7]", "value": "poorly cell-permeant"}, {"measurement": "normalized percentage of cells responding to PbTx-1 with the first peak", "setting": "sensory neurons", "value": "48.2±11.1", "unit": "%"}, {"measurement": "normalized percentage of cells responding to PbTx-1 with the plateau", "setting": "sensory neurons", "value": "41.0±13.8", "unit": "%"}, {"measurement": "normalized percentage of cells responding to PbTx-1 with the second peak", "setting": "sensory neurons", "value": "45.2±11.1", "unit": "%"}, {"measurement": "P-CTX-2-induced SP release, reduced to (% of P-CTX-2 alone)", "setting": "[3]", "value": "13.1±6.1", "unit": "%"}]}, {"molecule": "C1CCC[C@H]2CCCN3CC[C@@H](CCCCCC[C@@H]4CCCN5CC[C@@H](CC1)O[C@@H]45)O[C@@H]23", "note": "[Xestospongin C]", "values": [{"measurement": "PbTx-1-induced SP release with pre-treatment (normalized levels)", "setting": "[1]", "value": "35.5±9.7", "unit": "%"}, {"measurement": "normalized amplitude values in each phase (FIGS. 9B, 9D, 9F)", "setting": "sensory neurons", "value": "No significant modification"}, {"measurement": "normalized percentage of cells responding to PbTx-1 with the first peak", "setting": "sensory neurons", "value": "did not decrease"}, {"measurement": "normalized percentage of cells responding to PbTx-1 with the second peak", "setting": "sensory neurons", "value": "62.5±14.7", "unit": "%"}]}, {"molecule": "Cc1c(C(=O)Nc2cccc(C(F)(F)F)c2)cc(-c2ccccc2)n1CCCN1CCOCC1", "note": "[HC-067047]", "values": [{"measurement": "PbTx-1-induced SP release with pre-treatment (normalized levels)", "setting": "[1]", "value": "58.7±14.5% and 41.3±14.5%"}, {"measurement": "normalized amplitude values in each phase (FIGS. 9B, 9D, 9F)", "setting": "sensory neurons", "value": "No significant modification"}, {"measurement": "normalized percentage of cells responding to PbTx-1 with the first peak", "setting": "sensory neurons", "value": "59.4±11.5", "unit": "%"}, {"measurement": "normalized percentage of cells responding to PbTx-1 with the plateau", "setting": "sensory neurons", "value": "35.0±16.1", "unit": "%"}, {"measurement": "normalized percentage of cells responding to PbTx-1 with the second peak", "setting": "sensory neurons", "value": "35.6±11.5", "unit": "%"}]}, {"molecule": "COc1ccc(CCN2CCC(Nc3nc4ccccc4n3Cc3ccc(F)cc3)CC2)cc1", "note": "[Astemizole]", "values": [{"measurement": "PAR-2 calcium signaling / calcium mobilization", "setting": "PAR-2 [2]", "value": "inhibit"}, {"measurement": "ERK1/2 phosphorylation", "setting": "PAR-2 [6]", "value": "inhibit"}]}, {"molecule": "CCOC(=O)N1CCC(=C2c3ccc(Cl)cc3CCc3cccnc32)CC1", "note": "[Loratadine]", "values": [{"measurement": "PAR-2 calcium signaling / calcium mobilization", "setting": "PAR-2 [2]", "value": "inhibit"}, {"measurement": "ERK1/2 phosphorylation", "setting": "PAR-2 [6]", "value": "inhibit"}]}, {"molecule": "OC[C@@H](O)[C@@H](O)[C@H](O)[C@H](O)CO", "note": "[mannitol]", "values": [{"measurement": "effectiveness in severe cases of poisoning supported early", "setting": "[8]; iv", "value": "effectiveness"}, {"measurement": "effectiveness in non-severe forms of intoxication", "setting": "[8]", "value": "not effective"}]}, {"molecule": "COc1ccccc1OCCNCC(O)COc1cccc2[nH]c3ccccc3c12", "note": "(centres unmarked) [Carvedilol]", "values": [{"measurement": "PAR-2 calcium signaling / calcium mobilization", "setting": "PAR-2 [2]", "value": "inhibit"}, {"measurement": "ERK1/2 phosphorylation", "setting": "PAR-2 [6]", "value": "inhibit"}]}]}
